Measured values: ChEMBL document CHEMBL1201862, “PubChem BioAssay data set” (2004)
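Compound exposure: 48 hours, 5 concentrations, 96-well plates. GI50 = concentration required for 50% inhibition of growth.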 Active and inactive are the calls of the source. Cut-off read from the data, not from the text of the source: active = GI50 up to about 1.1 µM and inactive = higher.

Experiments:
Assay in all cases: DTP human tumour cell line panel, 48 h
KM-20L2 = test system: KM-20L2
SW-620 = test system: SW-620
TK-10 = test system: TK-10
U-251 = test system: U-251
HOP-92 = test system: HOP-92
SR = test system: SR
LOX IMVI = test system: LOX IMVI
CAKI-1 = test system: CAKI-1
M14 = test system: M14
UO-31 = test system: UO-31
NCI-H23 = test system: NCI-H23
A498 = test system: A498
SNB-78 = test system: SNB-78
OVCAR-3 = test system: OVCAR-3
M19-MEL = test system: M19-MEL
SK-OV-3 = test system: SK-OV-3
MDA-N = test system: MDA-N
MCF7 = test system: MCF7
786-0 = test system: 786-0
PC-3 = test system: PC-3

Measured: GI50

COc1nc(N)c(NC(C)=O)c(=O)n1C
inactive: KM-20L2 > 100 µM | SW-620 > 100 µM | TK-10 > 100 µM | U-251 > 100 µM | HOP-92 39.9 µM | SR > 100 µM | LOX IMVI > 100 µM | CAKI-1 > 100 µM | M14 > 100 µM | UO-31 > 100 µM | NCI-H23 > 100 µM | A498 > 100 µM | SNB-78 > 100 µM

COc1ccc(S(=O)(=O)c2ccccc2[N+](=O)[O-])cc1
inactive: KM-20L2 > 100 µM | OVCAR-3 98.6 µM | SW-620 > 100 µM | TK-10 > 100 µM | U-251 82.6 µM | M19-MEL 77.8 µM | HOP-92 > 100 µM | SR > 100 µM | LOX IMVI 91.4 µM | SK-OV-3 > 100 µM | M14 > 100 µM | UO-31 78 µM | NCI-H23 98.9 µM | A498 > 100 µM

OC1C[C@H](c2ccccc2)C2(C(O)c3ccccc3C2O)[C@@H](c2ccccc2)C1 (stereo partly specified)
inactive: OVCAR-3 > 100 µM | SW-620 > 100 µM | TK-10 > 100 µM | U-251 > 100 µM | HOP-92 57.4 µM | SR 11.1 µM | LOX IMVI 40.2 µM | MDA-N > 100 µM | CAKI-1 > 100 µM | SK-OV-3 > 100 µM | MCF7 > 100 µM | 786-0 > 100 µM | M14 > 100 µM | UO-31 > 100 µM | NCI-H23 > 100 µM | PC-3 > 100 µM | A498 > 100 µM

CC1(C)OC(C(N)=O)=C(C(N)=O)O1
inactive: KM-20L2 > 100 µM | OVCAR-3 > 100 µM | SW-620 > 100 µM | TK-10 > 100 µM | U-251 > 100 µM | M19-MEL > 100 µM | HOP-92 > 100 µM | SR 6.53 µM | LOX IMVI > 100 µM | CAKI-1 > 100 µM | SK-OV-3 > 100 µM | 786-0 > 100 µM | M14 > 100 µM | UO-31 > 100 µM | NCI-H23 > 100 µM | A498 > 100 µM

COc1ccc(N2C(=O)C3ON(C(C(N)=O)c4ccccc4)C(c4cc5ccccc5c5ccccc45)C3C2=O)cc1 (stereo unspecified)
inactive: OVCAR-3 31.7 µM | SW-620 26.9 µM | TK-10 28.8 µM | U-251 38.5 µM | HOP-92 47.1 µM | SR 16.1 µM | LOX IMVI 24.2 µM | MDA-N 11.8 µM | CAKI-1 9.1 µM | SK-OV-3 > 50 µM | MCF7 15.6 µM | 786-0 32.4 µM | M14 17.7 µM | UO-31 16.7 µM | NCI-H23 45.7 µM | PC-3 30.7 µM | A498 > 50 µM

CC1CCCP(=O)(c2ccccc2)CC1 (stereo unspecified)
inactive: KM-20L2 > 100 µM | OVCAR-3 > 100 µM | SW-620 > 100 µM | TK-10 > 100 µM | U-251 > 100 µM | M19-MEL > 100 µM | LOX IMVI > 100 µM | CAKI-1 > 100 µM | SK-OV-3 > 100 µM | 786-0 > 100 µM | M14 > 100 µM | UO-31 > 100 µM | NCI-H23 > 100 µM | A498 > 100 µM | SNB-78 > 100 µM

COc1ccc(-c2cc(N3CCN(c4ccc(Cl)cc4)CC3)c(C#N)c(=O)o2)cc1
inactive: KM-20L2 > 100 µM | SW-620 40 µM | TK-10 16.5 µM | U-251 21.2 µM | HOP-92 > 100 µM | SR > 100 µM | LOX IMVI 10.4 µM | CAKI-1 8.71 µM | M14 35.1 µM | UO-31 4.79 µM | NCI-H23 21.8 µM | A498 16.4 µM | SNB-78 11.7 µM

c1c(N2CCOCC2)s[s+]c1N1CCOCC1
inactive: KM-20L2 > 100 µM | SW-620 > 100 µM | TK-10 76.6 µM | U-251 > 100 µM | HOP-92 > 100 µM | SR > 100 µM | LOX IMVI > 100 µM | CAKI-1 > 100 µM | SK-OV-3 > 100 µM | 786-0 > 100 µM | M14 > 100 µM | UO-31 > 100 µM | NCI-H23 > 100 µM | A498 > 100 µM | SNB-78 > 100 µM

COc1ccc(C(=O)C(C(=O)C(=O)NCCCNC(=O)C(=O)C(C(=O)c2ccc(OC)cc2)c2ccc(OC)cc2)c2ccc(OC)cc2)cc1 (stereo unspecified)
inactive: KM-20L2 > 100 µM | OVCAR-3 > 100 µM | SW-620 > 100 µM | TK-10 > 100 µM | U-251 > 100 µM | HOP-92 > 100 µM | SR > 100 µM | LOX IMVI > 100 µM | SK-OV-3 > 100 µM | 786-0 > 100 µM | M14 > 100 µM | UO-31 > 100 µM | NCI-H23 > 100 µM | SNB-78 > 100 µM

COC1(OC)CCC2(C)OC(c3ccccc3)C1O2 (stereo unspecified)
inactive: KM-20L2 > 100 µM | OVCAR-3 > 100 µM | SW-620 > 100 µM | TK-10 > 100 µM | U-251 > 100 µM | SR > 100 µM | LOX IMVI > 100 µM | CAKI-1 > 100 µM | SK-OV-3 > 100 µM | 786-0 > 100 µM | M14 > 100 µM | UO-31 > 100 µM | NCI-H23 > 100 µM

CCOC(=O)C1S/C(=N\c2ccc(C)c(C)c2)N=C1C (stereo unspecified)
inactive: KM-20L2 > 100 µM | OVCAR-3 > 100 µM | SW-620 > 100 µM | TK-10 > 100 µM | U-251 > 100 µM | M19-MEL > 100 µM | HOP-92 > 100 µM | SR > 100 µM | LOX IMVI 75.2 µM | CAKI-1 > 100 µM | SK-OV-3 > 100 µM | 786-0 > 100 µM | M14 > 100 µM | UO-31 > 100 µM | NCI-H23 > 100 µM | A498 > 100 µM

COc1ccc(NC(=O)CSc2nnc(Cc3ccccc3)o2)cc1
inactive: KM-20L2 > 100 µM | OVCAR-3 78.3 µM | SW-620 > 100 µM | TK-10 > 100 µM | U-251 34.5 µM | M19-MEL 82.6 µM | LOX IMVI 53.5 µM | CAKI-1 > 100 µM | SK-OV-3 > 100 µM | 786-0 > 100 µM | M14 > 100 µM | UO-31 > 100 µM | NCI-H23 61.5 µM | A498 > 100 µM | SNB-78 > 100 µM

CC(=O)N[C@@H]1C(O)CN2C(=O)C(=O)O[C@H](C(O)CO)[C@@H]12 (stereo partly specified)
inactive: KM-20L2 > 100 µM | OVCAR-3 > 100 µM | SW-620 > 100 µM | TK-10 > 100 µM | U-251 > 100 µM | M19-MEL > 100 µM | HOP-92 > 100 µM | LOX IMVI > 100 µM | SK-OV-3 > 100 µM | 786-0 > 100 µM | UO-31 > 100 µM | A498 > 100 µM | SNB-78 > 100 µM
